Results from patent US12071441B2, “10-(di(phenyl)methyl)-4-hydroxy-8,9,9A,10-tetrahydro-7H-pyrrolo[1′,2′:4,5]pyrazino[1,2-b]pyridazine-3,5-dione derivatives and related compounds as inhibitors of the orthomyxovirus replication for treating influenza” (Novartis AG, priority 2018, dated 2024).

Tests used:
Assay in all cases: microbe, parasite or virus in culture
Format in all cases: cell-based
[1] = tested on: influenza A virus minigenome (PB2, PB1, PA, NP; luciferase reporter) in 293T cells, RNP_Hubei; conditions: HEK-293T, 48 h
[2] = tested on: influenza A virus minigenome (PB2, PB1, PA, NP; luciferase reporter) in 293T cells, RNP_Alaska; conditions: HEK-293T, 48 h
[3] = tested on: influenza A virus minigenome (PB2, PB1, PA, NP; luciferase reporter) in 293T cells, RNP_CAL; conditions: HEK-293T, 48 h, read-out: RNP_CAL_EC50

With `COC(=O)c1ccccc1C(=O)Oc1c2n(ncc1=O)[C@@H]([C@H](c1ccccc1)c1cccc(F)c1F)[C@H]1CCCN1C2=O` [Example 70, (9aR,10S)-10-((R)-(2,3-difluorophenyl)(phenyl)methyl)-3,5-dioxo-3,5,8,9,9a,10-hexahydro-7H-pyrrolo[1′,2′:4,5]pyrazino[1,2-b]pyridazin-4-yl methyl phthalate] the EC50 [1] was < 100 nM, the EC50 [2] was < 100 nM and the EC50 [3] was < 100 nM.

For `CCN(CC)C(=O)Oc1c2n(ncc1=O)[C@@H]([C@H](c1ccccc1)c1cccc(F)c1F)[C@H]1CCCN1C2=O` [Example 71, (9aR,10S)-10-((R)-(2,3-difluorophenyl)(phenyl)methyl)-3,5-dioxo-3,5,8,9,9a,10-hexahydro-7H-pyrrolo[1′,2′:4,5]pyrazino[1,2-b]pyridazin-4-yl diethylcarbamate], the EC50 [1] was 100 to 1000 nM, the EC50 [2] was 100 to 1000 nM and the EC50 [3] was 100 to 1000 nM.

In the case of `CC(C)CC(=O)OCOc1c2n(ncc1=O)[C@@H]([C@H](c1ccccc1)c1cccc(F)c1F)[C@H]1CCCN1C2=O` [Example 72, (((9aR,10S)-10-((R)-(2,3-difluorophenyl)(phenyl)methyl)-3,5-dioxo-3,5,8,9,9a,10-hexahydro-7H-pyrrolo[1′,2′:4,5]pyrazino[1,2-b]pyridazin-4-yl)oxy)methyl 3-methylbutanoate], the EC50 [1] is reported as < 100 nM, the EC50 [2] is reported as < 100 nM and the EC50 [3] is reported as < 100 nM.

With `O=C(CC1CCOCC1)Oc1c2n(ncc1=O)[C@@H]([C@H](c1ccccc1)c1cccc(F)c1F)[C@H]1CCCN1C2=O` [Example 73, (9aR,10S)-10-((R)-(2,3-difluorophenyl)(phenyl)methyl)-3,5-dioxo-3,5,8,9,9a,10-hexahydro-7H-pyrrolo[1′,2′:4,5]pyrazino[1,2-b]pyridazin-4-yl 2-(tetrahydro-2H-pyran-4-yl)acetate] the EC50 [1] was < 100 nM, the EC50 [2] was < 100 nM and the EC50 [3] was < 100 nM.

In the case of `O=C(Oc1c2n(ncc1=O)[C@@H]([C@H](c1ccccc1)c1cccc(F)c1F)[C@H]1CCCN1C2=O)OC1CCOCC1` [Example 74, (9aR,10S)-10-((R)-(2,3-difluorophenyl)(phenyl)methyl)-3,5-dioxo-3,5,8,9,9a,10-hexahydro-7H-pyrrolo[1′,2′:4,5]pyrazino[1,2-b]pyridazin-4-yl (tetrahydro-2H-pyran-4-yl) carbonate], the EC50 [1] is reported as < 100 nM, the EC50 [2] is reported as < 100 nM and the EC50 [3] is reported as < 100 nM.

For `O=C(Oc1c2n(ncc1=O)[C@@H]([C@H](c1ccccc1)c1cccc(F)c1F)[C@H]1CCCN1C2=O)C1CCOCC1` [Example 75, (9aR,10S)-10-((R)-(2,3-difluorophenyl)(phenyl)methyl)-3,5-dioxo-3,5,8,9,9a,10-hexahydro-7H-pyrrolo[1′,2′:4,5]pyrazino[1,2-b]pyridazin-4-yl tetrahydro-2H-pyran-4-carboxylate], the EC50 [1] was < 100 nM, the EC50 [2] was < 100 nM and the EC50 [3] was < 100 nM.

With `CC(=O)OCOc1c2n(ncc1=O)[C@@H]([C@H](c1ccccc1)c1cccc(F)c1F)[C@H]1CCCN1C2=O` [Example 76, (((9aR,10S)-10-((R)-(2,3-difluorophenyl)(phenyl)methyl)-3,5-dioxo-3,5,8,9,9a,10-hexahydro-7H-pyrrolo[1′,2′:4,5]pyrazino[1,2-b]pyridazin-4-yl)oxy)methyl acetate] the EC50 [1] was < 100 nM, the EC50 [2] was < 100 nM and the EC50 [3] was < 100 nM.

`CCC(=O)OCOc1c2n(ncc1=O)[C@@H]([C@H](c1ccccc1)c1cccc(F)c1F)[C@H]1CCCN1C2=O` [Example 77, (((9aR,10S)-10-((R)-(2,3-difluorophenyl)(phenyl)methyl)-3,5-dioxo-3,5,8,9,9a,10-hexahydro-7H-pyrrolo[1′,2′:4,5]pyrazino[1,2-b]pyridazin-4-yl)oxy)methyl propionate] was tested, and the EC50 [1] was < 100 nM, the EC50 [2] was < 100 nM and the EC50 [3] was < 100 nM.

For `Cc1oc(=O)oc1COc1c2n(ncc1=O)[C@@H]([C@H](c1ccc(F)cc1)c1cccc(F)c1F)[C@H]1CCCN1C2=O` [Example 80, (9aR,10S)-10-((R)-(2,3-difluorophenyl)(4-fluorophenyl)methyl)-4-((5-methyl-2-oxo-1,3-dioxol-4-yl)methoxy)-8,9,9a,10-tetrahydro-7H-pyrrolo[1′,2′:4,5]pyrazino[1,2-b]pyridazine-3,5-dione], the EC50 [1] was < 100 nM, the EC50 [2] was < 100 nM and the EC50 [3] was < 100 nM.

With `COC(=O)OCOc1c2n(ncc1=O)[C@@H]([C@H](c1ccc(F)cc1)c1cccc(F)c1F)[C@H]1CCCN1C2=O` [Example 82, (((9aR,10S)-10-((R)-(2,3-difluorophenyl)(4-fluorophenyl)methyl)-3,5-dioxo-3,5,8,9,9a,10-hexahydro-7H-pyrrolo[1′,2′:4,5]pyrazino[1,2-b]pyridazin-4-yl)oxy)methyl methyl carbonate] the EC50 [1] was < 100 nM, the EC50 [2] was < 100 nM and the EC50 [3] was < 100 nM.

In the case of `CC(=O)Oc1c2n(ncc1=O)[C@@H]([C@H](c1ccc(F)cc1)c1cccc(F)c1F)[C@H]1CCCN1C2=O` [Example 83, (9aR,10S)-10-((R)-(2,3-difluorophenyl)(4-fluorophenyl)methyl)-3,5-dioxo-3,5,8,9,9a,10-hexahydro-7H-pyrrolo[1′,2′:4,5]pyrazino[1,2-b]pyridazin-4-yl acetate], the EC50 [1] is reported as < 100 nM, the EC50 [2] is reported as < 100 nM and the EC50 [3] is reported as < 100 nM.

For `CC(C)C(=O)Oc1c2n(ncc1=O)[C@@H]([C@H](c1ccc(F)cc1)c1cccc(F)c1F)[C@H]1CCCN1C2=O` [Example 84, (9aR,10S)-10-((R)-(2,3-difluorophenyl)(4-fluorophenyl)methyl)-3,5-dioxo-3,5,8,9,9a,10-hexahydro-7H-pyrrolo[1′,2′:4,5]pyrazino[1,2-b]pyridazin-4-yl isobutyrate], the EC50 [1] was < 100 nM, the EC50 [2] was < 100 nM and the EC50 [3] was < 100 nM.

With `CN(C)C(=O)OCOc1c2n(ncc1=O)[C@@H]([C@H](c1ccc(F)cc1)c1cccc(F)c1F)[C@H]1CCCN1C2=O` [Example 85, (((9aR,10S)-10-((R)-(2,3-difluorophenyl)(4-fluorophenyl)methyl)-3,5-dioxo-3,5,8,9,9a,10-hexahydro-7H-pyrrolo[1′,2′:4,5]pyrazino[1,2-b]pyridazin-4-yl)oxy)methyl dimethylcarbamate] the EC50 [1] was 100 to 1000 nM, the EC50 [2] was ≥ 1000 nM and the EC50 [3] was 100 to 1000 nM.

In the case of `COCCOC(=O)OCOc1c2n(ncc1=O)[C@@H]([C@H](c1ccc(F)cc1)c1cccc(F)c1F)[C@H]1CCCN1C2=O` [Example 86, (((9aR,10S)-10-((R)-(2,3-difluorophenyl)(4-fluorophenyl)methyl)-3,5-dioxo-3,5,8,9,9a,10-hexahydro-7H-pyrrolo[1′,2′:4,5]pyrazino[1,2-b]pyridazin-4-yl)oxy)methyl (2-methoxyethyl) carbonate], the EC50 [1] is reported as < 100 nM, the EC50 [2] is reported as < 100 nM and the EC50 [3] is reported as < 100 nM.

For `CC(C)OC(=O)Oc1c2n(ncc1=O)[C@@H]([C@H](c1ccc(F)cc1)c1cccc(F)c1F)[C@H]1CCCN1C2=O` [Example 88, (9aR,10S)-10-((R)-(2,3-difluorophenyl)(4-fluorophenyl)methyl)-3,5-dioxo-3,5,8,9,9a,10-hexahydro-7H-pyrrolo[1′,2′:4,5]pyrazino[1,2-b]pyridazin-4-yl isopropyl carbonate], the EC50 [1] was < 100 nM, the EC50 [2] was < 100 nM and the EC50 [3] was < 100 nM.

For `CCOC(=O)OCOc1c2n(ncc1=O)[C@@H]([C@H](c1ccc(F)cc1)c1cccc(F)c1F)[C@H]1CCCN1C2=O` [Example 92, (((9aR,10S)-10-((R)-(2,3-difluorophenyl)(4-fluorophenyl)methyl)-3,5-dioxo-3,5,8,9,9a,10-hexahydro-7H-pyrrolo[1′,2′:4,5]pyrazino[1,2-b]pyridazin-4-yl)oxy)methyl ethyl carbonate], the EC50 [1] was < 100 nM, the EC50 [2] was < 100 nM and the EC50 [3] was < 100 nM.

`CC(C)CC(=O)Oc1c2n(ncc1=O)[C@@H]([C@H](c1ccc(F)cc1)c1cccc(F)c1F)[C@H]1CCCN1C2=O` [Example 93, (9aR,10S)-10-((R)-(2,3-difluorophenyl)(4-fluorophenyl)methyl)-3,5-dioxo-3,5,8,9,9a,10-hexahydro-7H-pyrrolo[1′,2′:4,5]pyrazino[1,2-b]pyridazin-4-yl 3-methylbutanoate] was tested, and the EC50 [1] was < 100 nM, the EC50 [2] was < 100 nM and the EC50 [3] was < 100 nM.

With `COC(=O)OCOc1c2n(ncc1=O)[C@@H]([C@H](c1cccc(F)c1)c1cccc(F)c1F)[C@H]1CCCN1C2=O` [Example 95, (((9aR,10S)-10-((R)-(2,3-difluorophenyl)(3-fluorophenyl)methyl)-3,5-dioxo-3,5,8,9,9a,10-hexahydro-7H-pyrrolo[1′,2′:4,5]pyrazino[1,2-b]pyridazin-4-yl)oxy)methyl methyl carbonate] the EC50 [1] was < 100 nM, the EC50 [2] was < 100 nM and the EC50 [3] was < 100 nM.

`CN(C)C(=O)Oc1c2n(ncc1=O)[C@@H]([C@H](c1cccc(F)c1)c1cccc(F)c1F)[C@H]1CCCN1C2=O` [Example 96, (9aR,10S)-10-((R)-(2,3-difluorophenyl)(3-fluorophenyl)methyl)-3,5-dioxo-3,5,8,9,9a,10-hexahydro-7H-pyrrolo[1′,2′:4,5]pyrazino[1,2-b]pyridazin-4-yl dimethylcarbamate] was tested, and the EC50 [1] was 100 to 1000 nM, the EC50 [2] was ≥ 1000 nM and the EC50 [3] was ≥ 1000 nM.

With `COCCOC(=O)Oc1c2n(ncc1=O)[C@@H]([C@H](c1cccc(F)c1)c1cccc(F)c1F)[C@H]1CCCN1C2=O` [Example 97, (9aR,10S)-10-((R)-(2,3-difluorophenyl)(3-fluorophenyl)methyl)-3,5-dioxo-3,5,8,9,9a,10-hexahydro-7H-pyrrolo[1′,2′:4,5]pyrazino[1,2-b]pyridazin-4-yl (2-methoxyethyl) carbonate] the EC50 [1] was < 100 nM, the EC50 [2] was < 100 nM and the EC50 [3] was < 100 nM.

`O=C(Oc1c2n(ncc1=O)[C@@H]([C@H](c1cccc(F)c1)c1cccc(F)c1F)[C@H]1CCCN1C2=O)N1CCCCC1` [Example 98, (9aR,10S)-10-((R)-(2,3-difluorophenyl)(3-fluorophenyl)methyl)-3,5-dioxo-3,5,8,9,9a,10-hexahydro-7H-pyrrolo[1′,2′:4,5]pyrazino[1,2-b]pyridazin-4-yl piperidine-1-carboxylate] was tested, and the EC50 [1] was ≥ 1000 nM, the EC50 [2] was ≥ 1000 nM and the EC50 [3] was ≥ 1000 nM.
